Test results published in US9238030B2, “Methods for treatment of diseases and disorders related to transducin β-like protein 1 (TBL1) activity, including myeloproliferative neoplasia and chronic myeloid leukemia” (Beta Cat Pharmaceuticals, LLC, priority 2011, dated 2016).

Key:
β-catenin [1] = test: Western blot, proteasomal degradation of β-catenin in AML cells (FIG. 6C); type: cell-based
Procedure: As one can see, there is less of β-catenin in the AML cells treated with 100 nM of Compound 1 for 8 hours as compared to non-treated AML cells. However, when 10 nM of Carfilzomib (CZ) (a proteasome inhibitor) were administered to the same AML cells, the amount of β-catenin increased.

[2] = system: primary FLT3-ITD AML xenograft; test: Survival of NSG mice with primary FLT3-ITD AML xenograft; type: in vivo; settings: 10 mg/kg, three weeks, twice per week intravenous infusion
Excerpt: Very similar results were obtained in NSG mice with primary FLT3-ITD AML xenograft.

β-catenin [3] = test: Western blot of AML cells (FIG. 5C); type: cell-based; settings: 100 nM
β-catenin [4] = test: β-catenin expression and nuclear localization, staining with anti-β-catenin antibody and DAPI; type: cell-based; settings: CD34+ Primary FLT3-ITD AML cells, 100 nM, 16 hours
Excerpt: Briefly, CD34+ Primary AML cells, CD34+ Primary FLT3-ITD AML cells and CD34+ Normal cells were stained with anti-β-catenin antibody and DAPI nucleic acid stain. The photographs of these stains were also merged. The photographs of the stained cells are contained in FIG. 5A. As these photographs show, there is a lot of β-catenin expressed in both types of AML cells, and β-catenin is concentrated in nuclei of these cells.
As one can see, compared to control cells (i.e., not treated with Compound 1), this treatment leads to depletion of β-catenin expression and nuclear localization in AML cells.

[5] = system: TCF reporter plasmid (TOP-FLASH); test: TOP-FLASH and FOP-FLASH luciferase activity in AML cells; type: cell-based; settings: 20 nM, 50 nM, and 100 nM
Excerpt: FIG. 7A depicts a bar chart of TOP-FLASH and FOP-FLASH luciferase activity versus treatment of AML cells with different amounts of Compound 1.
TOP-FLASH is a Transfection grade T-cell factor (TCF) reporter plasmid containing two sets (with the second set in the reverse orientation) of three copies of the TCF binding site (wild type) upstream of the Thymidine Kinase (TK) minimal promoter and Luciferase open reading frame.
FOP-FLASH is a reporter plasmid containing mutated TCF binding sites is a negative control.
There was no reduction in FOP-FLASH (negative control).

LAMA-84 cells = test: Apoptosis of CML cells, annexin V / TOPRO3 flow cytometry; type: cell-based, human
Procedure: (§1) Briefly, cell lines K562 (human immortalized myelogenous leukemia line) and LAMA-84 (a human leucocytic cell line) were seeded in medium containing 10% FBS and penicillin/streptomycin. After 24 hours, the cells were treated with Compound 1 for 48 hours. At the end of the treatment, the cells were washed with 1×PBS and stained with annexin V and TOPRO3 iodide. The percentages of apoptotic cells were determined by flow cytometry.
(§2) Briefly, the cell lines K562 and LAMA-84, were seeded in medium containing 10% FBS and penicillin/streptomycin. After 24 hours, the cells were treated with either: 1) Compound 1 alone; or 2) in combination with panobinostat and nilotinib for 48 hours. At the end of treatment, cells were washed with 1×PBS and stained with annexin V and TOPRO3 iodide. The percentages of apoptotic cells were determined by flow cytometry.

K562 cells = test: as above; type: cell-based, human
Procedure: as §1, §2

UKE1 cells = test: Apoptosis of MPN cells, annexin V / TOPRO3 flow cytometry; type: cell-based
Procedure: as §2, with “HEL 92.1.7 (FIGS. 1A” for “K562”, “1C) and UKE1 (FIGS. 1B and 1D)” for “LAMA-84,”, “1;” for “1 alone;”, “2) Compound 1” for “2)”, “TG101209” for “panobinostat and nilotinib”

HEL 92.1.7 cells [6] = test: as above; type: cell-based
Procedure: as §2, with “HEL 92.1.7 (FIGS. 1A” for “K562”, “1C) and UKE1 (FIGS. 1B and 1D)” for “LAMA-84,”, “1;” for “1 alone;”, “2) Compound 1” for “2)”, “TG101209” for “panobinostat and nilotinib”

[7] = system: β-catenin, c-MYC, Cyclin D1 and p21; test: Levels of β-catenin, c-MYC, Cyclin D1 and p21 in AML cells (FIG. 7C); type: cell-based; settings: 100 nM
Procedure: FIG. 7C contains the bar chart of the effect of administering 100 nM of Compound 1 to AML cells on levels of β-catenin, c-MYC, Cyclin D1 and p21 (control).

[8] = system: β-catenin at target gene promoters; test: chIP (Chromatin immunoprecipitation) analysis in AML cells; type: cell-based; settings: 200 nM, 8 hours
Excerpt: FIG. 7B contains the bar chart of the results of chIP (Chromatin immunoprecipitation) analysis of the effect of treating AML cells with Compound 1.

β-catenin [9] = test: Western blot of primary AML cells (FIG. 6A); type: cell-based; settings: 100 nM, 8 hours
[10] = system: CD34+ CD38-Lin-Primary AML cells; test: % of non-viable cells, in vitro apoptosis; type: cell-based; settings: various amounts
HEL 92.1.7 cells [11] = test: Mouse model of human MPN, survival; type: in vivo, NOD-SCID mice; settings: 15 or 20 mg/Kg b.i.w for three weeks via the tail vein; p<001
Procedure: Briefly, NOD-SCID mice were sub-lethally irradiated and HEL 92.1.7 cells were infused into the tail vein and MPN established. Mice were treated with 15 or 20 mg/Kg of Compound 1 administered b.i.w for three weeks via the tail vein. Animals were followed for survival after dosing stopped.

[12] = system: CD34+ Primary FLT3-WT AML cells; test: % of non-viable cells, in vitro apoptosis; type: cell-based; settings: various amounts
[13] = system: CD34+ Primary FLT3-ITD AML cells; test: % of non-viable cells, in vitro apoptosis; type: cell-based; settings: various amounts
CD34+ MPN cells = test: Apoptosis of primary MPN cells isolated from patients; type: cell-based
Procedure: Briefly, the CD34+ cells isolated from bone marrow of MPN patients, were seeded in medium containing 10% FBS and penicillin/streptomycin. After 24 hours, the cells were treated with Compound 1 for 48 hours or Compound 1 in combination with TG101209. At the end of treatment, cells were washed with 1×PBS and stained with annexin V and TOPRO3 iodide. The percentages of apoptotic cells were determined by flow cytometry. Combination index (CI) was determined using the method of Chou-Talalay (Adv. Enzyme Regul. 22, 27-55).

[14] = biological target: T1, binding of β-catenin to TBL1 (Homo sapiens, UniProt O60907); test: Staining of AML cells with anti-β-catenin antibody, anti-TBL1 antibody and DAPI (FIG. 6B); type: cell-based; settings: 100 nM, 16 hours
T1 construct: endogenous in cells; host or cells: AML cells
T1 sequence (O60907 1-577): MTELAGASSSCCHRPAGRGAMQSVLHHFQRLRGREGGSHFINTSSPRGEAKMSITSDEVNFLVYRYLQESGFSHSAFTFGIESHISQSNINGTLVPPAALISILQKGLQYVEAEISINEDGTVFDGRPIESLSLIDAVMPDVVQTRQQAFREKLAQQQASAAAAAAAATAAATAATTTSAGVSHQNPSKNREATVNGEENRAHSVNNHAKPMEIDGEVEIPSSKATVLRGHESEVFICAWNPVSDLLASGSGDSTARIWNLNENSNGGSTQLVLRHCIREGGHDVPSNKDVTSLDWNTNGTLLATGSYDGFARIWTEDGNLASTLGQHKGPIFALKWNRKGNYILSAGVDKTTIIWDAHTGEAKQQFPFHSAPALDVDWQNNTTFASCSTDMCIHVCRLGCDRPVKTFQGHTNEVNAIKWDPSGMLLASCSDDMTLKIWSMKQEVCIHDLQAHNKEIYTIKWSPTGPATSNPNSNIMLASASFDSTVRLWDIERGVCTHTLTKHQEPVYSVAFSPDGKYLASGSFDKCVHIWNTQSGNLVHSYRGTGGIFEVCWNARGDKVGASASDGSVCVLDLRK
Procedure: FIG. 6B is a series of photographs of stained AML cells with and without prior administration of Compound 1. The top panel depicts control cells (without prior administration of Compound 1) and the bottom panel depicts AML cells following administration of 100 nM of Compound 1 for 16 hours. The cells were stained with the anti-β-catenin antibody, anti-TBL1 antibody, and DAPI nucleic acid stain. The photographs of TBL1 and anti-beta-catenin stains were also merged. […] Compare especially the top right photograph and the bottom right photograph.

OCI-AML3 xenograft cells = test: Survival of NSG mice with established AML by OCI-AML3 xenograft; type: in vivo; settings: three weeks, twice per week tail vein infusion
[15] = in combination with Compound 1, 48 hours

## CC(C)C[C@H](NC(=O)[C@H](CCc1ccccc1)NC(=O)CN1CCOCC1)C(=O)N[C@@H](Cc1ccccc1)C(=O)N[C@@H](CC(C)C)C(=O)[C@@]1(C)CO1 [Carfilzomib, reference compound]
β-catenin [1]; 10 nM Carfilzomib administered to the same AML cells treated with Compound 1
  amount of β-catenin: increased

## C[C@@H]1C[C@H](C)CN(S(=O)(=O)c2ccc3c(c2)C(=NO)c2cc(S(=O)(=O)N4C[C@H](C)C[C@H](C)C4)ccc2C3=NO)C1 [Compound 1]
[2]
  % survival compared to the control mice: dramatic increase
β-catenin [3]
  Survivin level, Western blot: about the same levels
  TBL1 level, Western blot: about the same levels
  c-MYC level, Western blot: about the same levels
  β-actin level, Western blot: about the same levels
  β-catenin expression, Western blot: less
β-catenin [4]
  β-catenin expression and nuclear localization: depletion
[5]
  FOP-FLASH luciferase activity (negative control): no reduction
  TOP-FLASH luciferase activity (expression of β-catenin as measured by this luciferase assay): much lower expression
LAMA-84 cells; LAMA-84, 48 hours
  effect at S or G2/M phases of the cell cycle: did not have significant effect
  number of apoptotic cells at G0/G1 phase of the cell cycle: increased
LAMA-84 cells; LAMA-84, Compound 1 alone, 48 hours
  number of apoptotic cells: increased
K562 cells; K562, 48 hours
  effect at S or G2/M phases of the cell cycle: did not have significant effect
  number of apoptotic cells at G0/G1 phase of the cell cycle: increased
K562 cells; K562, Compound 1 alone, 48 hours
  number of apoptotic cells: increased
UKE1 cells; Compound 1 alone, 48 hours
  apoptosis of UKE1 cells: induced apoptosis
HEL 92.1.7 cells [6]; Compound 1 alone, 48 hours
  apoptosis of HEL 92.1.7 cells: induced apoptosis
[7]
  expression of Cyclin D1: lower expression
  expression of c-MYC: lower expression
  expression of p21: much higher expression
  expression of β-catenin: lower expression
[8]
  amount of promoter DNA of CCND1, chIP: reduced amount
  amount of promoter DNA of c-MYC, chIP: reduced amount
  amount of promoter DNA of survivin, chIP: reduced amount
β-catenin [9]
  β-catenin, Western blot: less
[10]
  in vitro apoptosis (% of non-viable cells): significantly induced in vitro apoptosis
HEL 92.1.7 cells [11]
  survival compared to the control: significantly improved survival
[12]
  in vitro apoptosis (% of non-viable cells): significantly induced in vitro apoptosis
[13]
  in vitro apoptosis (% of non-viable cells): significantly induced in vitro apoptosis
β-catenin [1]; AML cells
  fate of β-catenin: proteasomal degradation
β-catenin [1]; AML cells, 100 nM, 8 hours
  β-catenin compared to non-treated AML cells, Western blot: less
CD34+ MPN cells; 100 nM or above, 48 hours
  apoptosis of CD34+ MPN cells: induced apoptosis
[14]
  binding of β-catenin to TBL1, staining: severely disrupted
  levels of β-catenin, staining: depleted
OCI-AML3 xenograft cells; 5 mg/kg
  survival compared to the control mice: improved survival
OCI-AML3 xenograft cells; 10 mg/kg
  survival compared to the control mice: improved survival

## Cc1cnc(Nc2ccc(N3CCN(C)CC3)cc2)nc1Nc1cccc(S(=O)(=O)NC(C)(C)C)c1 [TG101209, N-tert-butyl-3-[[5-methyl-2-[4-(4-methylpiperazin-1-yl)anilino]pyrimidin-4-yl]amino]benzenesulfonamide, reference compound]
UKE1 cells; [15]
  effect on apoptosis induced by Compound 1, UKE1 cells: enhanced
HEL 92.1.7 cells [6]; [15]
  effect on apoptosis induced by Compound 1, HEL 92.1.7 cells: enhanced
CD34+ MPN cells; in combination with Compound 1
  effect on apoptosis induced by Compound 1, CD34+ MPN cells: enhanced

## Cc1cn(-c2cc(NC(=O)c3ccc(C)c(Nc4nccc(-c5cccnc5)n4)c3)cc(C(F)(F)F)c2)cn1 [nilotinib, reference compound]
LAMA-84 cells; LAMA-84, in combination with Compound 1, 48 hours
  effect on apoptosis induced by Compound 1: enhanced
K562 cells; K562, in combination with Compound 1, 48 hours
  effect on apoptosis induced by Compound 1: enhanced
